Data as given in patent US9611284B2, “Prostaglandin-bisphosphonate conjugate compounds, methods of making same, and uses thereof” (Simon Fraser University, priority 2010, dated 2017).

What was measured:
[1] = Chemical stability of conjugate 8 in 0.1 N NaOH; format: physicochemical; conditions: room temperature, 24 hours
[2] = Uptake and release of radiolabelled conjugate 8, tritium levels in long bones; format: in vivo, female Sprauge-Dawley rats; conditions: rat, 5 mg/kg intravenous
Description: Uptake and Release of Conjugate 8: A solution was prepared of carbamate conjugate 8 (specific activity=15.4 mCi/mmol) in PBS. The conjugate was administered intravenously to female Sprauge-Dawley rats at 5 mg/kg. Triplicate sets of rats were euthanized at 1, 7, 14 and 28 days and tritium levels in bone were measured by incineration of the long bones in a biological oxidizer. After an initial 1 day uptake of 9.4%, 5.6% of the initial dose remained after 14 days.

CCOC(=O)CCCCCCN1C(=O)CC[C@@H]1/C=C/[C@@H](OC(=O)NCCCC(O)(P(=O)(O)O)P(=O)(O)O)C(F)(F)c1ccccc1 [Conjugate 8]
hydrolysis of the carbamate coupling [1]: not hydrolyzed | hydrolysis of the ethyl ester [1]: essentially quantitatively | % of Initial 3H Dose Remaining ([2]; 1 day): 9.4% | % of Initial 3H Dose Remaining ([2]; 7 days): 8.0% | % of Initial 3H Dose Remaining ([2]; 14 days, 5 mg/kg): 6.2% | % of Initial 3H Dose Remaining ([2]; 28 days): 5.6%
